Data reported in article PMC8305076, “Comprehensive Evaluation of Biological Effects of Pentathiepins on Various Human Cancer Cell Lines and Insights into Their Mode of Action” (International Journal of Molecular Sciences, 2021).
One block for each compound: values may come before it.

Experiments:
Assay type in all cases: cell-based, human
HAP-1 and HAP-1.KO.GPx1 = experiment: DCFDA ROS assay with GSH added to the medium; details: 25 µM pentathiepin plus 3 or 30 µM GSH in medium, 15 min
Protocol: As thiols are supposedly needed for the activation of the pentathiepins, the influence of additional glutathione added to the culture medium during treatment on the intracellular ROS levels was assessed. In these experiments, 3 or 30 µM of GSH were added to the medium containing 25 µM of pentathiepin or solvent, respectively (Figure 9).
In order to quantify intracellular ROS, we performed a flow cytometric assay based on the ROS-sensor 2′,7′-dichlorofluorescein diacetate (DCFDA). […] Per condition, 250,000 cells were seeded in 2 mL of medium per well of a 6-well plate and allowed to adhere overnight. For measurement of acute ROS, the cells were stained with 1 mL of a 20 µM DCFDA-PBS solution for 30 min under standard incubation conditions. […] After removing the solution and washing again with PBS, the cells were detached by using 0.5 mL of a diluted trypsin/EDTA-PBS solution (25%) and harvested with 1 mL of culture medium by carefully rinsing the wells. The cell suspension was transferred to 1.5 mL tubes, centrifuged for 5 min at 500× g, and washed with 1 mL of PBS. After removing the supernatant, each pellet was resuspended in 0.5 mL of PBS for measurement via the MACSquant Analyzer 10 at λEx/Em = 488/530 nm. Relative ROS levels resulting from treatment with pentathiepin were calculated by relating the fluorescence intensity of treated samples to the negative control. For the experiments covering periods of 24 and 48 h, the cells were incubated with the compounds first and stained with DCFDA afterwards. To assess the influence of additional GSH, we included 3 or 30 µM GSH to the medium containing 25 µM of pentathiepin, and the protocol was followed as described.

seven cancer cell lines = experiment: DCFDA flow cytometric ROS assay, acute; details: 25 µM, 15 min, vs solvent control
[1] = system: caspase-3 and -7 in HAP-1; experiment: luminescent caspase activity assay; details: pentathiepins IC90, doxorubicin 0.5 µM, 24 h
From the text: To further corroborate this mode of cell death, we performed a luminescent caspase assay by measuring caspase-3 (cas-3) and caspase-7 (cas-7) activities (Figure 16). Both are executioner caspases that are present as zymogens (35 kDa) and become active after being cleaved (fragment sizes 17 and 19 kDa) by initiator caspases. Activated cas-3 and -7 in turn have several other substrates, including PARP1. In this assay, a precursor with a caspase-specific target sequence was converted into its luminescent form by active caspase-3 or -7, thereby emitting light that can be quantified.
To study the activation of the effector caspases -3 and -7, we performed a luminescence-based assay according to the manufacturer’s instructions (Caspase-Glo, Promega, Walldorf, Germany). Briefly, 5000 cells were seeded in 0.1 mL per well of a 96-well plate and allowed to adhere overnight. […] Afterwards, the standard protocol was followed, including a 30 min incubation time before measurement of luminescent signals by using the Spectramax i3x (Molecular Devices, Sunnyvale, CA, USA). After subtraction of the background luminescence the positive control and treatment conditions were related to the negative control.

PARP1 in HAP-1.KO.GPx1 = experiment: Western blot of cleaved PARP1; details: pentathiepins IC90, doxorubicin 0.5 µM, 24 h
Protocol: (§1) In addition to general flow cytometric and microscopic analyses, Western blotting was performed to detect the apoptosis-relevant protein PARP1 (poly(ADP-ribose) polymerase 1) and its cleavage fragment (Figure 17 and Figures S29–S34). Full-length PARP1 (116 kDa) is involved in DNA repair, and a cleavage by caspases (fragment sizes 24 and 89 kDa) caused by caspase-3 and -7 is a hallmark of late apoptosis.
(§2) All detected specific bands were normalized to the total protein load per lane by the TGX stain-free gel system from Bio-Rad.
(§3) All Western blot analyses were performed with reagents, material, and devices purchased from Bio-Rad (Feldkirchen, Germany) if not stated otherwise. To obtain protein lysates, we seeded cells and treated them as described for the other methods. […] Cells were harvested by trypsinization and centrifugation for 5 min at 500× g. After a washing step with PBS, the cell pellet was resuspended in lysis buffer (Tris 50 mM (pH 7.4), 100 mM NaCl, 100 mM NaF, 5 mM EDTA, 0.2 mM Na3VO4, 0.1% Triton-X, and 1% protease inhibitor cocktail added immediately before use). Lysis was supported by incubating the samples for 10 min in an ultrasonic bath before centrifuging for 10 min at 18,000 × g and 4 °C. Protein quantification was performed via the Bradford method using ROTI®nanoquant reagent (Carl Roth GmbH, Karlsruhe, Germany) and bovine serum albumin as calibration standard. For electrophoretic separation, 15–40 µg of protein was loaded per well of a polyacrylamide gel (Mini- or Midi-Protean® TGX stain-free gel, Bio-Rad, Feldkirchen, Germany), and subsequent blotting was performed with Trans-Blot®Turbo™TransferPack Mini or Midi PVDF membranes from Bio-Rad (Feldkirchen, Germany). The membranes were blocked with a 10% non-fat milk powder solution in Tris-buffered saline (TBS; 2.42 g/L Tris, 8.48 g/L NaCl in water) plus 0.5% Tween-20 (TBST) for 1 h at RT. Incubation with primary antibodies took place over night at 4 °C in a 1:1000 dilution in TBST containing BSA (1%). The secondary antibodies conjugated to horse-radish peroxidase were diluted 1:10,000 in TBST and 1% BSA, and incubated for 4 h at RT. A detection step followed, applying Clarity™Western ECL substrate with subsequent imaging via the INTAS Advanced Fluorescence Imager. Between all incubation steps, the blots were washed three times for 10 min with TBST. The bands were quantified with the ImageLab software and normalized using the total protein quantification of the TGX stain-free gel system from Bio-Rad.

PARP1 in HAP-1 = experiment: Western blot of cleaved PARP1; details: pentathiepins IC90, doxorubicin 0.5 µM, 24 h
Protocol: as §1, §2, §3

caspase-3 and -7 activity vs solvent control [1]: statistically significant results
SMILES: CCOc1c2c(c3ccc(C(=O)N4CCCCC4)cn13)SSSSS2 [Compound 2, (6-Ethoxy-[1,2,3,4,5]pentathiepino[6,7-a]indolizin-9-yl)(piperidinyl)methanone]
effect of added GSH on intracellular ROS (HAP-1 and HAP-1.KO.GPx1): roughly doubling the effect of the compound alone
intracellular ROS levels (seven cancer cell lines): burst of ROS in all cell lines

caspase-3 and -7 activity vs solvent control [1]: statistically significant results
SMILES: CCOc1c2c(c3ccc(C(=O)N(CC)CC)cn13)SSSSS2 [Compound 4, 6-Ethoxy-N,N’-diethyl-[1,2,3,4,5]pentathiepino[6,7-a]indolizine-9-carboxamide]
effect of added GSH on intracellular ROS (HAP-1 and HAP-1.KO.GPx1): an ascending trend was observed but not determined as statistically significant
intracellular ROS levels (seven cancer cell lines): burst of ROS in all cell lines

caspase-3 and -7 activity vs solvent control [1]: statistically significant results
SMILES: CCOc1c2c(c3ccc(C(=O)N4CCN(S(=O)(=O)c5ccc(C)cc5)CC4)cn13)SSSSS2 [Compound 6, (6-Ethoxy-[1,2,3,4,5]pentathiepino[6,7-a]indolizin-9-yl)(4-tosylpiperazinyl)methanone]
effect of added GSH on intracellular ROS (HAP-1 and HAP-1.KO.GPx1): tendency toward decreased oxidative stress
cleaved PARP1 (PARP1 in HAP-1.KO.GPx1): relevant and significant quantities of cleaved PARP1
cleaved PARP1 (PARP1 in HAP-1): relevant and significant quantities of cleaved PARP1
intracellular ROS levels (seven cancer cell lines): only in three of the panel

Continued, compound first:

SMILES: CCOc1c2c(c3cnc4[nH]c(-c5ccc(OC)cc5)cc4n13)SSSSS2 [Compound 1, 11-Ethoxy-2-(4-methoxyphenyl)-3H-[1,2,3,4,5]pentathiepino[6′,7′:3,4]pyrrolo[1,2-a]pyrrolo[2,3-e]pyrazine]
effect of added GSH on intracellular ROS (HAP-1 and HAP-1.KO.GPx1): No change was observed
intracellular ROS levels (seven cancer cell lines): did not change the intracellular ROS levels in any of the cell lines

SMILES: CCOc1c2c(c3ccc(C(=O)N4CCOCC4)cn13)SSSSS2 [Compound 3, (6-Ethoxy-[1,2,3,4,5]pentathiepino[6,7-a]indolizin-9-yl)(morpholino)methanone]
effect of added GSH on intracellular ROS (HAP-1 and HAP-1.KO.GPx1): tendency toward decreased oxidative stress
cleaved PARP1 (PARP1 in HAP-1.KO.GPx1): trends for increased levels
cleaved PARP1 (PARP1 in HAP-1): trends for increased levels
intracellular ROS levels (seven cancer cell lines): burst of ROS in all cell lines

SMILES: CCOc1c2c(c3ccc(C(=O)N4CCN(C(=O)c5ccc(F)cc5)CC4)cn13)SSSSS2 [Compound 5, (6-Ethoxy-[1,2,3,4,5]pentathiepino[6,7-a]indolizin-9-yl)(4-(4-fluorobenzoyl)piperazinyl)methanone]
effect of added GSH on intracellular ROS (HAP-1 and HAP-1.KO.GPx1): roughly doubling the effect of the compound alone
cleaved PARP1 (PARP1 in HAP-1.KO.GPx1): trends for increased levels
cleaved PARP1 (PARP1 in HAP-1): trends for increased levels
intracellular ROS levels (seven cancer cell lines): burst of ROS in all cell lines
